Like-named read-outs stand apart in the source and are kept apart here.

Data on 14 compounds can be found in patent publication US7994185B2, “Benzene sulfonamide thiazole and oxazole compounds” (Glaxo Smith Kline LLC, priority 2008, dated 2011).

In assay [1] the target is T1, BRAFV600E full-length (amino acids 2-766) (Homo sapiens, UniProt P15056, V600E).
T1 construct: His6-tagged BRAFV600E full-length (amino acids 2-766); His6; made in house; host or cells: baculovirus expression system (insect cells)
T1 sequence (P15056 2-766 V600E): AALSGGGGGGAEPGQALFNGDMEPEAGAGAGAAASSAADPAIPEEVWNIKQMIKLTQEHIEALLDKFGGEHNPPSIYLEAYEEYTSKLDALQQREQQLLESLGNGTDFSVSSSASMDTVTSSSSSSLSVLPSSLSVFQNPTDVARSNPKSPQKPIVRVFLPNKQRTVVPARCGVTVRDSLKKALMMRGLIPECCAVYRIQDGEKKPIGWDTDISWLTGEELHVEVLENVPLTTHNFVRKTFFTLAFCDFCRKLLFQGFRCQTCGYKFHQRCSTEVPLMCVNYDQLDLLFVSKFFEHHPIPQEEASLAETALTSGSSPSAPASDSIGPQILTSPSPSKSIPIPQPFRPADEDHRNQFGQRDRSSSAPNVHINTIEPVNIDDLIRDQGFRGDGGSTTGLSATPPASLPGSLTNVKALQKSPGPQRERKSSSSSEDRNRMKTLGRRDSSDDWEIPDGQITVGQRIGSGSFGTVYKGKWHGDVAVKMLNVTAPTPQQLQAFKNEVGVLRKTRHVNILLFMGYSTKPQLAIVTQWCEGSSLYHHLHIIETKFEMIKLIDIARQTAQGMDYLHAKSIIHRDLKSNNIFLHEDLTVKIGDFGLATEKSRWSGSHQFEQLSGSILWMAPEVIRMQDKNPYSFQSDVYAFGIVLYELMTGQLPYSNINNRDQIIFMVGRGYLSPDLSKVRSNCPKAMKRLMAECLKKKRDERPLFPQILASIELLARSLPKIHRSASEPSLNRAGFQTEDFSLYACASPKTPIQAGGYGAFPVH
Nature of the assay: B-Raf Accelerated MEK ATPase assay (BRAMA). Format: biochemical. As to conditions: categorized. Summed up: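 Coupled-enzyme readout: ADP generated by MEK-mediated ATP hydrolysis, uncoupled from ERK phosphorylation, is linked to NADH oxidation through pyruvate kinase and lactate dehydrogenase.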

Assay [2] relates to Human melanoma cancer cells (SK-MEL-28). Description: Cell growth inhibition assay (CellTiter-Glo), SK-MEL-28. Format: cell-based.
The subject of assay [3] is Human colon tumor cells (Colo205). Nature of the assay: Cell growth inhibition assay (CellTiter-Glo), Colo205. In kind it is cell-based. Here is the method: Human colon tumor cells (Colo205) were cultured in RPMI (Mediatech 50-020-PB) containing 10% FBS and 1% penicillin-streptomycin.
The next day, compounds were diluted as follow: For 96-well assays, 13.5 μL of compound in DMSO were diluted using nine (9) serial 1:3 dilutions of 4.5 μL in 9 μL of DMSO. Medium (270 μL/well of RPMI with 10% FBS and 1% penicillin-streptomycin) was added to the plates. Aliquots (7 μL) were added to cells in the final assay giving a final DMSO concentration of 0.2%. For 384-well assays, 15 μL of compound in DMSO were diluted using nine (9) serial 1:3 dilutions of 5 μL in 10 μL of DMSO, followed by a further dilution of 5 μL of compound with 95 μL of medium, of which 2 μL were added to cells in the final assay giving a final DMSO concentration of 0.2%. Cells were incubated at 37° C., 5% CO2 for 3 days.
Total ATP was measured (as a surrogate estimate of cell number) using CellTiter-Glo® reagent (Promega G7571). Briefly, plates were removed from the incubator and allowed to equilibrate to room temperature for 30 minutes. CellTiter-Glo® (25 μL or 55 μL for 384-well or 96-well assays, respectively) reagent was added to each well and plates were shaken on an orbital plate shaker for 2 minutes. Plates were incubated without shaking for a further 30 minutes and read on an LJL Analyst GT reader in luminometer mode with an integration time of 0.5 seconds per well. Percent inhibition of cell growth was calculated relative to DMSO vehicle-treated control wells.
A general note: In ATP-based viability assays light output follows the ATP content of the culture.

The mark [4] stands for this setting: B-Raf Activity, Table 1a, highest pIC50 for the one or more runs.
Setting [5] is: B-Raf pIC50, Table 1b, later runs, average pIC50 for the one or more runs.
The mark [6] stands for this setting: SK-MEL-28, 72 h, Table 3a, 3 days incubation, read-out: Activity in SK-MEL-28 Tumor Cells.
Where [7] appears, read: SK-MEL-28, Table 3b, later runs, average for the one or more runs, categorized, read-out: IC50 for SK-MEL-28.
[8] abbreviates: COLO 205, 72 h, Table 2a, 3 days incubation, read-out: Activity in Colo205 Tumor Cells.
The mark [9] stands for this setting: COLO 205, Table 2b, later runs, average for the one or more runs, categorized, read-out: IC50 for Colo205.
Where [10] appears, read: Table 1b, later runs, average pIC50 for the one or more runs, read-out: B-Raf pIC50 (converted).

As for `CC(C)c1nc(-c2ccc(F)c(NS(=O)(=O)c3c(F)cccc3F)c2)c(-c2ccnc(NCC3CC3)n2)s1` [Example 6, N-{5-[5-{2-[(Cyclopropylmethyl)amino]-4-pyrimidinyl}-2-(1-methylethyl)-1,3-thiazol-4-yl]-2-fluorophenyl}-2,6-difluorobenzenesulfonamide], the IC50 in assay [1] (setting [4]) is under 100 nM; in assay [1] (setting [5]), 31.6 to 1000 nM; in assay [2] (setting [6]), over 1000 nM; in assay [2] (setting [7]), 1000 to 10000 nM; in assay [3] (setting [8]), over 1000 nM; in assay [3] (setting [9]), 1000 to 10000 nM.
For the compound `CC(C)c1nc(-c2ccc(F)c(NS(=O)(=O)c3c(F)cccc3F)c2)c(-c2ccnc(NCCCN3CCOCC3)n2)s1` [Example 7, 2,6-Difluoro-N-{2-fluoro-5-[2-(1-methylethyl)-5-(2-{[3-(4-morpholinyl)propyl]amino}-4-pyrimidinyl)-1,3-thiazol-4-yl]phenyl}benzenesulfonamide], the IC50 is 100 to 1000 nM in assay [1] (setting [4]); 31.6 to 1000 nM in assay [1] (setting [5]); over 1000 nM in assay [2] (setting [6]); 1000 to 10000 nM in assay [2] (setting [7]); over 1000 nM in assay [3] (setting [8]); 1000 to 10000 nM in assay [3] (setting [9]).
As for `CCNc1nccc(-c2sc(C(C)C)nc2-c2ccc(F)c(NS(=O)(=O)c3c(F)cccc3F)c2)n1` [Example 9, N-{5-[5-[2-(Ethylamino)-4-pyrimidinyl]-2-(1-methylethyl)-1,3-thiazol-4-yl]-2-fluorophenyl}-2,6-difluorobenzenesulfonamide], the IC50 in assay [1] (setting [4]) was 100 to 1000 nM; in assay [1] (setting [5]), 31.6 to 1000 nM; in assay [2] (setting [6]) it was over 1000 nM; in assay [2] (setting [7]) it was 1000 to 10000 nM; in assay [3] (setting [8]), over 1000 nM; in assay [3] (setting [9]), 1000 to 10000 nM.
Take `CC(C)(C)c1nc(-c2cccc(NS(=O)(=O)c3c(F)cccc3F)c2F)c(-c2ccnc(NCCCS(C)(=O)=O)n2)s1` [Example 12, N-{3-[2-(1,1-Dimethylethyl)-5-(2-{[3-(methylsulfonyl)propyl]amino}-4-pyrimidinyl)-1,3-thiazol-4-yl]-2-fluorophenyl}-2,6-difluorobenzenesulfonamide]: the IC50 was under 100 nM in assay [1] (setting [4]); at most 3.16 nM in assay [1] (setting [5]); under 100 nM in assay [2] (setting [6]); under 100 nM in assay [2] (setting [7]); under 100 nM in assay [3] (setting [8]); under 100 nM in assay [3] (setting [9]).
For `CC(C)(C)c1nc(-c2cccc(NS(=O)(=O)c3c(F)cccc3F)c2F)c(-c2ccnc(NC3CCS(=O)(=O)CC3)n2)s1` [Example 13, N-[3-(2-(1,1-Dimethylethyl)-5-{2-[(1,1-dioxidotetrahydro-2H-thiopyran-4-yl)amino]-4-pyrimidinyl}-1,3-thiazol-4-yl)-2-fluorophenyl]-2,6-difluorobenzenesulfonamide], the IC50 in assay [1] (setting [4]) was under 100 nM; in assay [1] (setting [5]), at most 3.16 nM; in assay [2] (setting [6]), under 100 nM; in assay [2] (setting [7]) it was under 100 nM; in assay [3] (setting [8]) it was under 100 nM; in assay [3] (setting [9]), under 100 nM.
For the compound `CS(=O)(=O)CCNc1nccc(-c2sc(N3CCOCC3)nc2-c2cccc(NS(=O)(=O)c3c(F)cccc3F)c2F)n1` [Example 14, 2,6-Difluoro-N-{2-fluoro-3-[5-(2-{[2-(methylsulfonyl)ethyl]amino}-4-pyrimidinyl)-2-(4-morpholinyl)-1,3-thiazol-4-yl]phenyl}benzenesulfonamide], the IC50 was under 100 nM in assay [1] (setting [4]); at most 3.16 nM in assay [1] (setting [5]); under 100 nM in assay [2] (setting [6]); under 100 nM in assay [2] (setting [7]); under 100 nM in assay [3] (setting [8]); under 100 nM in assay [3] (setting [9]).
As for `CS(=O)(=O)CCCNc1nccc(-c2sc(N3CCOCC3)nc2-c2cccc(NS(=O)(=O)c3c(F)cccc3F)c2F)n1` [Example 15, 2,6-Difluoro-N-{2-fluoro-3-[5-(2-{[3-(methylsulfonyl)propyl]amino}-4-pyrimidinyl)-2-(4-morpholinyl)-1,3-thiazol-4-yl]phenyl}benzenesulfonamide], the IC50 in assay [1] (setting [4]) was under 100 nM; in assay [1] (setting [5]) it was at most 3.16 nM; in assay [2] (setting [6]), under 100 nM; in assay [2] (setting [7]), under 100 nM; in assay [3] (setting [8]), under 100 nM; in assay [3] (setting [9]), under 100 nM.
`CC(C)(C)c1nc(-c2ccc(F)c(NS(=O)(=O)c3c(F)cccc3F)c2)c(-c2ccnc(N[C@H]3CC[C@H](NS(C)(=O)=O)CC3)n2)s1` [Example 16, N-(5-{2-(1,1-Dimethylethyl)-5-[2-({trans-4 [(methylsulfonyl)amino]cyclohexyl}amino)-4-pyrimidinyl]-1,3-thiazol-4-yl}-2-fluorophenyl)-2,6-difluorobenzenesulfonamide]: the IC50 in assay [1] (setting [4]) was under 100 nM; in assay [1] (setting [10]), 3.16 to 31.6 nM; in assay [2] (setting [6]) it was under 100 nM; in assay [2] (setting [7]), under 100 nM; in assay [3] (setting [8]), under 100 nM; in assay [3] (setting [9]), under 100 nM.
With `CS(=O)(=O)N[C@H]1CC[C@H](Nc2nccc(-c3sc(N4CCCC4)nc3-c3cccc(NS(=O)(=O)c4c(F)cccc4F)c3)n2)CC1` [Example 17, 2,6-Difluoro-N-{3-[5-[2-({trans-4-[(methylsulfonyl)amino]cyclohexyl}amino)-4-pyrimidinyl]-2-(1-pyrrolidinyl)-1,3-thiazol-4-yl]phenyl}benzenesulfonamide], the IC50 in assay [1] (setting [4]) is under 100 nM; in assay [1] (setting [10]), 3.16 to 31.6 nM; in assay [2] (setting [6]), under 100 nM; in assay [2] (setting [7]), under 100 nM; in assay [3] (setting [8]), under 100 nM; in assay [3] (setting [9]), under 100 nM.
Consider `CC(C)CNc1nccc(-c2sc(C3CCOCC3)nc2-c2cccc(NS(=O)(=O)c3c(F)cccc3F)c2Cl)n1` [Example 18, N-{2-Chloro-3-[5-{2-[(2-methylpropyl)amino]-4-pyrimidinyl}-2-(tetrahydro-2H-pyran-4-yl)-1,3-thiazol-4-yl]phenyl}-2,6-difluorobenzenesulfonamide], for which the IC50 was under 100 nM in assay [1] (setting [4]); at most 3.16 nM in assay [1] (setting [5]); under 100 nM in assay [2] (setting [6]); under 100 nM in assay [2] (setting [7]); under 100 nM in assay [3] (setting [8]); under 100 nM in assay [3] (setting [9]).
For the compound `CC(C)CNc1nccc(-c2sc(C(C)(C)C)nc2-c2cccc(NS(=O)(=O)c3c(F)cccc3F)c2Cl)n1` [Example 19, N-[2-Chloro-3-(2-(1,1-dimethylethyl)-5-{2-[(2-methylpropyl)amino]-4-pyrimidinyl}-1,3-thiazol-4-yl)phenyl]-2,6-difluorobenzenesulfonamide], the IC50 is under 100 nM in assay [1] (setting [4]); 3.16 to 31.6 nM in assay [1] (setting [10]); under 100 nM in assay [2] (setting [6]); under 100 nM in assay [2] (setting [7]); under 100 nM in assay [3] (setting [8]); under 100 nM in assay [3] (setting [9]).
In the case of `CC(C)CNc1nccc(-c2sc(N3CCOCC3)nc2-c2cccc(NS(=O)(=O)c3c(F)cccc3F)c2Cl)n1` [Example 20, N-{2-Chloro-3-[5-{2-[(2-methylpropyl)amino]-4-pyrimidinyl}-2-(4-morpholinyl)-1,3-thiazol-4-yl]phenyl}-2,6-difluorobenzenesulfonamide], the IC50 in assay [1] (setting [4]) is under 100 nM; in assay [1] (setting [5]), at most 3.16 nM; in assay [2] (setting [6]), under 100 nM; in assay [2] (setting [7]) it was under 100 nM; in assay [3] (setting [8]), under 100 nM; in assay [3] (setting [9]), under 100 nM.
Regarding `Nc1nccc(-c2sc(N3CCOCC3)nc2-c2cccc(NS(=O)(=O)c3c(F)cccc3F)c2Cl)n1` [Example 21, N-{3-[5-(2-Amino-4-pyrimidinyl)-2-(4-morpholinyl)-1,3-thiazol-4-yl]-2-chlorophenyl}-2,6-difluorobenzenesulfonamide], the IC50 was under 100 nM in assay [1] (setting [4]); at most 3.16 nM in assay [1] (setting [5]); 100 to 1000 nM in assay [2] (setting [6]); 100 to 1000 nM in assay [2] (setting [7]); 100 to 1000 nM in assay [3] (setting [8]); 100 to 1000 nM in assay [3] (setting [9]).
Regarding `CC(C)CNc1nccc(-c2sc(N3CCOCC3)nc2-c2cccc(NS(=O)(=O)c3cc(F)ccc3F)c2Cl)n1` [Example 22, N-{2-Chloro-3-[5-{2-[(2-methylpropyl)amino]-4-pyrimidinyl}-2-(4-morpholinyl)-1,3-thiazol-4-yl]phenyl}-2,5-difluorobenzenesulfonamide], the IC50 was under 100 nM in assay [1] (setting [4]); 3.16 to 31.6 nM in assay [1] (setting [10]); under 100 nM in assay [2] (setting [6]); under 100 nM in assay [2] (setting [7]); under 100 nM in assay [3] (setting [8]); under 100 nM in assay [3] (setting [9]).
